The source of these data is ChEMBL document CHEMBL1201862, “PubChem BioAssay data set” (2004).

Test systems include M19-MEL; DMS-114; DLD-1; KM-20L2; XF498; DMS-273; RXF 631; SNB-78; HOP-18.
What all share (experiment): NCI tumour cell line growth inhibition, 48 h

The structures appear in SMILES notation.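 Five compound concentrations were applied to cells in 96-well plates for 48 hours; endpoints were derived by simple linear interpolation of the resulting dose-response curve. GI50 marks 50% less growth.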 Active and inactive are the calls of the source. Cut-off read from the data, not from the text of the source: active = GI50 up to about 1.1 µM and inactive = higher. Some results are limits rather than exact numbers.

As to `Nc1ccn(C2OC(CO)C(O)C2O)c(=O)n1` (stereo unspecified), the GI50 is 6.43 µM (inactive) in the assay on M19-MEL; 0.173 µM (active) in the assay with DMS-114; 481 µM (inactive) in the assay with DLD-1; 64 µM (inactive) in the assay with KM-20L2; 434 µM (inactive) in the assay on XF498; 1.74 µM (inactive) in the assay with DMS-273.

`CC(C)c1cccc2sc(NC(=O)C(=O)CC(=O)c3ccc(F)cc3)nc12`: the GI50 with M19-MEL, in the assay on DMS-114, with DLD-1, in the assay with KM-20L2, with RXF 631 and with XF498 was > 100 µM (inactive) throughout. For the same molecule, the GI50 in the assay with SNB-78 and in the assay with DMS-273 was > 100 µM (inactive) throughout.

Consider `Clc1ccc(C[P+](c2ccccc2)(c2ccccc2)c2ccccc2)cc1Cl`, for which the GI50 was 1.79 µM (inactive) in the assay on M19-MEL; 1.52 µM (inactive) with DMS-114; 2.1 µM (inactive) in the assay on HOP-18; 9.2 µM (inactive) in the assay on DLD-1; 2.94 µM (inactive) in the assay on KM-20L2; 1.32 µM (inactive) in the assay on XF498. The GI50 in the assay on SNB-78 is 25.8 µM (inactive); in the assay on DMS-273, 2.01 µM (inactive).

Consider `Cc1ccc([N+](=O)[O-])cc1NC(=O)C(=O)Cc1occc(=O)c1O`, for which the GI50 in the assay on M19-MEL, in the assay on DMS-114, in the assay with HOP-18, in the assay on DLD-1, with KM-20L2 and in the assay with XF498 was > 100 µM (inactive) each time.

With `CCOc1ccc2nc(NC(=O)C(=O)C(C(=O)c3ccccc3-c3ccccc3)C3OC(=O)c4ccccc43)sc2c1` (stereo unspecified), the GI50 is 19.1 µM (inactive) in the assay with M19-MEL; 14.8 µM (inactive) with DMS-114; 29.6 µM (inactive) in the assay with DLD-1; 22.4 µM (inactive) in the assay on KM-20L2; 21.3 µM (inactive) in the assay on XF498; 18.6 µM (inactive) in the assay with SNB-78. Moreover, in the assay with DMS-273, the GI50 is 23.1 µM (inactive).

For the molecule `CC1=C(C(=O)NCc2ccccc2)C(c2ccc(C3C(C(=O)NCc4ccccc4)=C(C)NC(C)=C3C(=O)NCc3ccccc3)cc2)C(C(=O)NCc2ccccc2)=C(C)N1`, the GI50 in the assay on M19-MEL is 8.39 µM (inactive); with DMS-114, 12.6 µM (inactive); with HOP-18 it was 37.5 µM (inactive); in the assay with DLD-1, 3.44 µM (inactive); in the assay with KM-20L2, 13.9 µM (inactive); in the assay with XF498, 14.9 µM (inactive). For the same molecule, the values for the GI50 with SNB-78 and with DMS-273 were 9.46 µM (inactive) and 9.42 µM (inactive), respectively.

As for `Cc1cc(N(CCC#N)CCC#N)ccc1/C=C1/N=C(c2ccccc2)N(N)C1=O`, the GI50 in the assay with M19-MEL is > 100 µM (inactive); with DMS-114, 75 µM (inactive); in the assay with DLD-1 it was > 100 µM (inactive); with KM-20L2, > 100 µM (inactive); with XF498, > 100 µM (inactive); in the assay on DMS-273, 89.1 µM (inactive).

Consider `O=C(O)Cc1cc(=O)[nH]c2c1/C(=N/O)CCC2`, for which the GI50 in the assay with HOP-18, with DLD-1 and with XF498 was > 100 µM (inactive) each time.

Consider `CC(Oc1ccc(OCC2CCCCC2)cc1)C(=O)N(CCO)CCO` (stereo unspecified), for which the GI50 with M19-MEL, with DMS-114, with HOP-18, in the assay with XF498, in the assay on SNB-78 and with DMS-273 was > 100 µM (inactive) throughout.

For `CC(=O)c1cc([N+](=O)[O-])ccc1OCC(=O)O`, the GI50 with M19-MEL, in the assay with DMS-114, in the assay with DLD-1, in the assay with KM-20L2, with RXF 631 and in the assay with SNB-78 was > 100 µM (inactive) throughout. Moreover, the GI50 in the assay on DMS-273 was > 100 µM (inactive).

`Cn1c(/C=C/CO)c(CO)c2c1C(=O)C=C(N1CC1)C2=O` [APAZIQUONE]: the GI50 in the assay with M19-MEL is < 0.01 µM (active); with DMS-114, < 0.01 µM (active); in the assay on HOP-18 it was < 0.01 µM (active); with DLD-1, 0.0152 µM (active); with KM-20L2, 0.0147 µM (active); in the assay with XF498, < 0.01 µM (active). In addition, the figures for the GI50 in the assay on SNB-78 and in the assay on DMS-273 were 0.2 µM (active) and < 0.01 µM (active), respectively.

Take `C=C(C=O)[C@@H]1C2OC(=O)C(=C)[C@@H]2CC(O)[C@@]1(C)CC` (stereo partly specified): the GI50 was 5.48 µM (inactive) in the assay on M19-MEL; 14.8 µM (inactive) in the assay on DMS-114; 26.1 µM (inactive) in the assay with HOP-18; 2.75 µM (inactive) in the assay on DLD-1; 12.2 µM (inactive) in the assay on KM-20L2; 19.2 µM (inactive) in the assay on RXF 631. Besides, the GI50 in the assay on SNB-78 was 6.17 µM (inactive).

With `O=C1OC(c2ccccc2)(c2ccccc2)c2ccc3ccc(F)cc3c21`, the GI50 was 20.7 µM (inactive) in the assay on M19-MEL; 9.23 µM (inactive) in the assay on DMS-114; > 100 µM (inactive) in the assay on DLD-1; 21.8 µM (inactive) in the assay with KM-20L2; 51.4 µM (inactive) in the assay with RXF 631; > 100 µM (inactive) with XF498. For the same molecule, in the assay on DMS-273, the GI50 was 7.21 µM (inactive).

As to `COc1ccc(-c2nc(SC)n(C3OC(COC(C)=O)C(OC(C)=O)C(OC(C)=O)C3OC(C)=O)c(=O)c2C#N)cc1` (stereo unspecified), the GI50 in the assay with KM-20L2 is 95.5 µM (inactive); with SNB-78 it was 21 µM (inactive).

In the case of `O=C(O)/C(Cl)=C(\Cl)C(=O)c1ccccc1`, the GI50 in the assay with M19-MEL, in the assay on DMS-114, in the assay on DLD-1, with KM-20L2, in the assay on XF498 and in the assay on SNB-78 was > 100 µM (inactive) throughout. In addition, in the assay on DMS-273, the GI50 is > 100 µM (inactive).

As for `C=C1C2Oc3ccccc3C1N(c1ccccc1)O2` (stereo unspecified), the GI50 in the assay on M19-MEL was 42.7 µM (inactive); in the assay with DMS-114, 23.3 µM (inactive); in the assay on DLD-1, 26.7 µM (inactive); in the assay with KM-20L2, 37.6 µM (inactive); in the assay with RXF 631 it was 16 µM (inactive); in the assay with XF498, 17.4 µM (inactive). Also, the GI50 in the assay on DMS-273 was > 10 µM (inactive).

For `NCCCNCCSP(=O)(O)O` [AMIFOSTINE], the GI50 in the assay with M19-MEL is 514 µM (inactive); with DMS-114, > 750 µM (inactive); in the assay with HOP-18 it was > 750 µM (inactive); with DLD-1, > 750 µM (inactive); in the assay with KM-20L2, > 719 µM (inactive); in the assay on XF498 it was > 422 µM (inactive). Further, the GI50 in the assay on SNB-78 and in the assay on DMS-273 was > 750 µM (inactive) throughout.

For the molecule `COc1ccc(-c2onc(-c3ccc([N+](=O)[O-])cc3)c2C2=NCCCN2)cc1`, the GI50 in the assay with M19-MEL is > 100 µM (inactive); with HOP-18, 3.4 µM (inactive); in the assay with DLD-1, > 100 µM (inactive); in the assay with KM-20L2, 44.3 µM (inactive); in the assay on XF498, > 100 µM (inactive); with SNB-78, > 100 µM (inactive).

`C1=Nc2ccccc2Cn2nncc21`: the GI50 in the assay with M19-MEL is > 100 µM (inactive); in the assay with HOP-18 it was 74.8 µM (inactive); in the assay with DLD-1 it was 57.3 µM (inactive); with KM-20L2 it was > 100 µM (inactive); in the assay with XF498 it was > 100 µM (inactive); in the assay on DMS-273, > 10 µM (inactive).

As for `CC(=O)OCc1cc(=O)n(C)c2c3c4c(cc12)c(C)cc(=O)n4CO3`, the GI50 with M19-MEL is 1.43 µM (inactive); with DMS-114, 1.69 µM (inactive); with HOP-18 it was 5.33 µM (inactive); in the assay with DLD-1, 1.37 µM (inactive); with KM-20L2, 2.02 µM (inactive); in the assay on XF498, 1.17 µM (inactive). Moreover, the figures for the GI50 in the assay on SNB-78 and in the assay on DMS-273 were 1.99 µM (inactive) and 0.982 µM (active), respectively.

In the case of `CCCCC1(C2c3ccccc3Oc3ccccc32)C(=O)N(c2ccccc2)N(c2ccccc2)C1=O`, the GI50 was > 100 µM (inactive) in the assay on M19-MEL; > 100 µM (inactive) in the assay on HOP-18; 25.8 µM (inactive) with DLD-1; 22.5 µM (inactive) in the assay on KM-20L2; > 31.9 µM (inactive) in the assay on XF498; 37.1 µM (inactive) with SNB-78. Further, the GI50 with DMS-273 is 47 µM (inactive).

With `Cc1cc2nc3c(=O)n(C)c(=O)nc-3n(-c3ccc(Cl)cc3)c2cc1C`, the GI50 with M19-MEL is 2.32 µM (inactive); in the assay with DMS-114, 3.1 µM (inactive); with HOP-18 it was 6.87 µM (inactive); with DLD-1 it was 14.5 µM (inactive); with KM-20L2, 3.62 µM (inactive); in the assay on XF498 it was 1.29 µM (inactive). Further, the GI50 with SNB-78 was 18.5 µM (inactive); in the assay on DMS-273, 5.62 µM (inactive).
